Laboratory results as given in US8906904B2, “Alkoxy pyrazoles as soluble guanylate cyclase activators” (Boehringer Ingelheim International GmbH, priority 2012, dated 2014).

Assay: human liver microsome (HLM) metabolic stability assay
Format: in vitro ADME
Settings: human liver microsomes; % hepatic blood flow calculated from t1/2
Method: The 5 time point, high-throughput human liver microsome (HLM) metabolic stability assay is designed to determine in vitro compound metabolism. Compounds are incubated with HLMs at a concentration of 1 uM, at 37° C., for a total of 60 min. The percent of compound remaining at 5, 15, 30, and 60 min is used to calculate the t½ (min), CLint (mL/min/kg), CLh (mL/min/kg), and % Qh. The assay is based on a 96-well format and can accommodate up to 92 compounds per plate (n=1).
Using the 96-well multi-channel head, the Biomek FX, equipped with a Peltier heating block/shaker, is programmed to accomplish the following steps: • 1. Pipette 175 uL of 1.15 mg/mL microsomes into each of the 96 conical inserts (Analytical Sales and Products, catalog number 96PL05) that fit into the plate of the Peltier heating block/shaker (the incubation plate) • 2. Add 5 uL of compounds from the assay plate to the microsomes and shake the mixture at 600 rpm at 42.1° C. for 10 min (a setting of 42.1° C. on the Peltier is required for the samples to incubate at 37° C.) • 3. After 10 min, prompt the user to add the NADPH plate to the deck and add 20 uL from the NADPH plate to the incubation plate to start the reaction • 4. Add 215 uL of 100%, cold acetonitrile containing an internal standard(s) to a 0 minute, 5 minute, 15 minute, 30 minute, and 60 minute “quench” plate • 5. At 0 min, 5 min, 15 min, 30 min, and 60 min into the incubation, aspirate 12 uL from the incubation mixture and add it to the quench solution to stop the reaction • 6. Add 185 uL HPLC grade water to each well of the 0, 5, 15, 30 and 60 minute quench plates to dilute compounds to the appropriate concentration for the mass spectrometer
After all time points are collected, the quench plates are sealed with 96-well pierceable plate mats or heat sealing foil and centrifuged at 3000 rpm for 15 min to pellet the microsomes.
The plates are analyzed using LC/MS/MS with electron spray ionization (ESI) and the previously determined MRM transitions. The LC method includes the following parameters:
Using an Excel template in Activitybase, the peak areas corresponding to 5, 15, 30 and 60 min are compared to the peak area at 0 min to calculate the percent of remaining compound using the following equation: Percent compound remaining=(AUC at Time t min/AUC at Time 0 min)×100 where t=0, 5, 15, 30 or 60 min.
Time (min) is plotted against the natural logarithm (Ln) of the percent compound remaining to determine the slope. The slope is used to calculate t½ (min) using the equation, t½=0.693/slope.
Preferred compounds have % Qh values of less than 24.

Structure (SMILES) | HLM (% Qh)
COc1c(C(=O)O)cnn1-c1cccc(-c2cccc(C)c2OCc2ccc3c(c2)CCN([C@H]2CC[C@@]4(CCCO4)CC2)C3)n1 [Compound 103] | 25 % Qh
COc1c(C(=O)O)cnn1-c1cccc(-c2cccc(C)c2OCc2ccc3c(c2)OCCN(C2CCOCC2)C3)n1 [Compound 130] | 25 % Qh
Cc1cccc(-c2cccc(-n3ncc(C(=O)O)c3OCC(C)C)n2)c1OCc1ccc2c(c1C)CCN(C1CCOCC1)C2 [Compound 134] | 32 % Qh
Cc1cccc(-c2cccc(-n3ncc(C(=O)O)c3OC(C)C)n2)c1OCc1ccc2c(c1C)CCN([C@H]1CCCOC1)C2 [Compound 117] | 25 % Qh
Cc1cccc(-c2cccc(-n3ncc(C(=O)O)c3OC(C)C)n2)c1OCc1ccc2c(c1C)CCN(C1CCOCC1)C2 [Compound 104] | 26 % Qh
COc1c(C(=O)O)cnn1-c1cccc(-c2cccc(C)c2OCc2ccc3c(c2C)CCN([C@@H]2CCOC2)C3)n1 [Compound 106] | <24 % Qh
COc1c(C(=O)O)cnn1-c1cccc(-c2cccc(C)c2OCc2ccc3c(c2)CCN(CC2(C)COC2)C3)n1 [Compound 12] | <24 % Qh
COc1c(C(=O)O)cnn1-c1cccc(-c2cccc(C)c2OCc2ccc3c(c2C)CCN([C@H]2CCCOC2)C3)n1 [Compound 141] | <24 % Qh
CCOc1c(C(=O)O)cnn1-c1cccc(-c2cccc(C)c2OCc2ccc3c(c2)CCN([C@@H]2CCOC2)C3)n1 [Compound 112] | <24 % Qh
CCOc1c(C(=O)O)cnn1-c1cccc(-c2cccc(C)c2OCc2ccc3c(c2)CCN(CC2CC(=O)N(C)C2)C3)n1 (centres unmarked) [Compound 97, 5-ethoxy-1-(6-{3-methyl-2-[2-(1-methyl-5-oxo-pyrrolidin-3-ylmethyl)-1,2,3,4-tetrahydro-isoquinolin-6-ylmethoxy]-phenyl}-pyridin-2-yl)-1H-pyrazole-4-carboxylic acid] | <24 % Qh
COc1c(C(=O)O)cnn1-c1cccc(-c2cccc(C)c2OCc2ccc3c(c2)CCN(CC(F)(F)F)C3)n1 [Compound 11, 5-methoxy-1-(6-{3-methyl-2-[2-(2,2,2-trifluoro-ethyl)-1,2,3,4-tetrahydro-isoquinolin-6-ylmethoxy]-phenyl}-pyridin-2-yl)-1H-pyrazole-4-carboxylic acid] | 47 % Qh
CCOc1c(C(=O)O)cnn1-c1cccc(-c2cccc(C)c2OCc2ccc3c(c2C)CCN(C2CCOCC2)C3)n1 [Compound 114] | <24 % Qh
COc1c(C(=O)O)cnn1-c1cccc(-c2cccc(C)c2OCc2ccc3c(c2)CCN(CC(C)(C)C)C3)n1 [Compound 14] | 31 % Qh
CCOc1c(C(=O)O)cnn1-c1cccc(-c2cccc(C)c2OCc2ccc3c(c2C)CCN([C@@H]2CCOC2)C3)n1 [Compound 126] | <24 % Qh
COc1c(C(=O)O)cnn1-c1cccc(-c2cccc(Cl)c2OCc2ccc3c(c2)CCN(C2COC2)C3)n1 [Compound 7] | <24 % Qh
COc1c(C(=O)O)cnn1-c1cccc(-c2cc(C)ccc2OCc2ccc3c(c2C)CCN(C2CCOCC2)C3)n1 [Compound 124] | <24 % Qh
CCOc1c(C(=O)O)cnn1-c1cccc(-c2cccc(C)c2OCc2ccc3c(c2)CCN(CC2CCCO2)C3)n1 (centres unmarked) [Compound 101, 5-ethoxy-1-(6-{3-methyl-2-[2-(tetrahydro-furan-2-ylmethyl)-1,2,3,4-tetrahydro-isoquinolin-6-ylmethoxy]-phenyl}-pyridin-2-yl)-1H-pyrazole-4-carboxylic acid] | <24 % Qh
CCOc1c(C(=O)O)cnn1-c1cccc(-c2cccc(C)c2OCc2ccc3c(c2)OCCN(C2CCOCC2)C3)n1 [Compound 131] | 28 % Qh
COc1c(C(=O)O)cnn1-c1cccc(-c2cccc(C)c2OCc2ccc3c(c2)CCN(C2COC2)C3)n1 [Compound 8] | <24 % Qh
Cc1cccc(-c2cccc(-n3ncc(C(=O)O)c3OC(C)C)n2)c1OCc1ccc2c(c1)CCN([C@@H]1CCCOC1)C2 [Compound 113] | <24 % Qh
COc1c(C(=O)O)cnn1-c1cccc(-c2cccc(C(F)(F)F)c2OCc2ccc3c(c2)CCN(C2COC2)C3)n1 [Compound 9] | <24 % Qh
COc1c(C(=O)O)cnn1-c1cccc(-c2ccc(C)cc2OCc2ccc3c(c2C)CCN(C2CCOCC2)C3)n1 [Compound 99] | <24 % Qh
Cc1cccc(-c2cccc(-n3ncc(C(=O)O)c3OC(C)C)n2)c1OCc1ccc2c(c1)CCN([C@H]1CCCOC1)C2 [Compound 115] | 25 % Qh
CCOc1c(C(=O)O)cnn1-c1cccc(-c2cccc(C)c2OCc2cc(C)c3c(c2)CN(C2CCOCC2)C3)n1 [Compound 118] | <24 % Qh
CCCOc1c(C(=O)O)cnn1-c1cccc(-c2cccc(C)c2OCc2ccc3c(c2C)CCN(C2CCOCC2)C3)n1 [Compound 133] | <24 % Qh
COc1c(C(=O)O)cnn1-c1cccc(-c2cccc(C)c2OCc2ccc3c(c2C)CCN(C[C@@H]2COCCO2)C3)n1 [Compound 139] | <24 % Qh

Results, then the molecule that gave them:

HLM (% Qh) | Structure (SMILES)
<24 % Qh | COc1c(C(=O)O)cnn1-c1cccc(-c2cccc(C)c2OCc2cc(C)c3c(c2)CCN(C2CCOCC2)C3)n1 [Compound 171]
27 % Qh | COc1c(C(=O)O)cnn1-c1cccc(-c2cccc(C)c2OCc2ccc3c(c2C(F)(F)F)CCN(C2CCOCC2)C3)n1 [Compound 166]
<24 % Qh | CCOc1c(C(=O)O)cnn1-c1cccc(-c2cccc(C)c2OCc2ccc3c(c2CC)CCN(C2CCOCC2)C3)n1 [Compound 154]
<24 % Qh | CCOc1c(C(=O)O)cnn1-c1cccc(-c2cccc(C)c2OCc2ccc3c(c2C)CCN(C[C@H]2COCCO2)C3)n1 [Compound 170]
<24 % Qh | COc1c(C(=O)O)cnn1-c1cccc(-c2cccc(C)c2OCc2cc3c(cc2C)CN(C2CCOCC2)C3)n1 [Compound 143]
<24 % Qh | CCOc1c(C(=O)O)cnn1-c1cccc(-c2cccc(C)c2OCc2cc(C)c3c(c2)CCN(C2CCCOC2)C3)n1 (centres unmarked) [Compound 173]
<24 % Qh | CCOc1c(C(=O)O)cnn1-c1cccc(-c2cccc(C)c2OCc2ccc3c(c2C)CCN(C[C@H]2COC(C)(C)O2)C3)n1 [Compound 179]
31 % Qh | CCOc1c(C(=O)O)cnn1-c1cccc(-c2cccc(C)c2OCc2cc3c(c(C(F)(F)F)c2)CN(C2CCOCC2)CC3)n1 [Compound 157]
<24 % Qh | CCOc1c(C(=O)O)cnn1-c1cccc(-c2cccc(C)c2OCc2ccc3c(c2C)CCN(C[C@@H]2CCCOC2)C3)n1 [Compound 152]
<24 % Qh | COc1c(C(=O)O)cnn1-c1cccc(-c2cccc(C)c2OCc2ccc3c(c2C)CCN(C[C@H]2COCCO2)C3)n1 [Compound 142]
<24 % Qh | Cc1cc(COc2c(C)cccc2-c2cccc(-n3ncc(C(=O)O)c3OC(C)C)n2)cc2c1CN(C1CCOCC1)CC2 [Compound 161]
<24 % Qh | COc1c(C(=O)O)cnn1-c1cccc(-c2cccc(C)c2OCc2cc(C)c3c(c2C)CN(C2CCOCC2)C3)n1 [Compound 145]
<24 % Qh | CCOc1c(C(=O)O)cnn1-c1cccc(-c2cccc(C)c2OCc2ccc3c(c2C)CCN(C2COC2)C3)n1 [Compound 164]
31 % Qh | CCOc1c(C(=O)O)cnn1-c1cccc(-c2cccc(C)c2OCc2ccc3c(c2C)CCN(C2COC2)CC3)n1 [Compound 175]
<24 % Qh | CC(C)Oc1c(C(=O)O)cnn1-c1cccc(-c2ccccc2OCc2ccc3c(c2)CCN(C2CCOCC2)C3)n1 [Compound 144]
<24 % Qh | CCOc1c(C(=O)O)cnn1-c1cccc(-c2cccc(C)c2OCc2ccc3c(c2C)CCN(CC2CCCOC2)C3)n1 (centres unmarked) [Compound 146]
<24 % Qh | COc1c(C(=O)O)cnn1-c1cccc(-c2cccc(C)c2OCc2cc(C)c3c(c2C)CCN(C2COC2)C3)n1 [Compound 178]
<24 % Qh | CCOc1c(C(=O)O)cnn1-c1cccc(-c2cccc(C)c2OCc2ccc3c(c2C)CCN(CCOCCO)C3)n1 [Compound 168]
26 % Qh | CCOc1c(C(=O)O)cnn1-c1cccc(-c2cccc(C)c2OCc2ccc3c(c2C)CCN(C2CCOCC2)CC3)n1 [Compound 162]
<24 % Qh | CCOc1c(C(=O)O)cnn1-c1cccc(-c2cccc(C)c2OCc2ccc3c(c2C)CCN(C2COC(C)(C)OC2)C3)n1 [Compound 155]
44 % Qh | COc1c(C(=O)O)cnn1-c1cccc(-c2cccc(C)c2OCc2ccc3c(c2C)CCN(S(C)(=O)=O)C3)n1 [Compound 160]
